The IC50 is the point on the concentration scale where inhibition reaches its midpoint. A higher IC50 goes with lower potency.

Structures are written as SMILES. Structures can show the parent of a compound that is named as a salt.

The subject of the first experiment is clot lysis (fibrinolysis) in human citrated plasma, tPA-induced. The experiment in a line: Plasma-based clot lysis assay (5%). It counts as biochemical. Particulars: diluted human citrated plasma (platelet-poor, 5%), fibrinogen 3 μM, CaCl2 10 mM, tPA 0.2 nM, 37° C., OD 405 nm. As for the experimental part:
B-2. Plasma-based Clot Lysis Assay (5%)
The clot-lysis test system configures the kinetics of clot formation and degradation in vitro and allows quantifying modulation of the process by selected test compounds.
The test compounds were dissolved in 1% acetic acid and further complemented with an equal volume of DMSO. The resulting stock solutions were serially diluted in 0.5% acetic acid/50% DMSO. 1 μL aliquots of these solutions were placed into 384 well microplates (Greiner, black, transparent bottom), followed by 30 μL of diluted human citrated plasma (platelet-poor, final concentration: 5%; supplemented with fibrinogen, final concentration: 3 μM; dilution buffer: 20 mM HEPES, 150 mM NaCl, 0.01% Brij (pH 7)). The reactions were started by addition of […] of CaCl2 (final concentration: 10 mM), and tPA (tissue plasminogen activator, final concentration: 0.2 nM) in dilution buffer, followed by an additional volume of 20 μL dilution buffer for improved mixing. The reactions were incubated at 37° C. Clot formation and degradation was monitored spectrophotometrically by kinetic optical density measurements at 405 nm. IC50 values were determined by comparing the resulting time courses with the time course of a blank control reaction.
Regarding `O=c1cc(C2CCNCC2)n2nc3cccc(-c4ccccc4F)c3c2[nH]1` [Example 95, 10-(2-Fluorophenyl)-4-(piperidin-4-yl)pyrimido[1,2-b]indazol-2(1H)-one], the IC50 was 18 nM. Take `O=c1cc(C2CCNCC2)n2nc3cccc(-n4ccnn4)c3c2[nH]1` [Example 99, 4-(Piperidin-4-yl)-10-(1H-1,2,3-triazol-1-yl)pyrimido[1,2-b]indazol-2(1H)-one hydrochloride]: the IC50 stood at 29 nM.

In turn, `O=c1cc(C2CCNCC2)n2nc3cccc(-n4nccn4)c3c2[nH]1` [Example 98, 4-(Piperidin-4-yl)-10-(2H-1,2,3-triazol-2-yl)pyrimido[1,2-b]indazol-2(1H)-one hydrochloride] gave an IC50 of 27 nM.

In turn, `O=c1cc(C2CCNCC2)n2nc3cc(F)cc(Br)c3c2[nH]1` [Example 81, 10-Bromo-8-fluoro-4-(piperidin-4-yl)pyrimido[1,2-b]indazol-2(1H)-one hydrochloride] registered an IC50 of 16 nM. `O=c1cc(C2CCNCC2)n2nc3cnccc3c2[nH]1` [Example 29, 4-(Piperidin-4-yl)pyrido[3′,4′:3,4]pyrazolo[1,5-a]pyrimidin-2(1H)-one hydrochloride] registered an IC50 of 28 nM. Consider `CC1CC(c2cc(=O)[nH]c3c4c(Cl)cccc4nn23)CCN1` (single isomer, unassigned; (+)) [Example 101, (+)-Cis-10-Chloro-4-(2-methylpiperidin-4-yl)pyrimido[1,2-b]indazol-2(1H)-one hydrochloride [Enantiomerically Pure Cis-Isomer]], for which half-maximal inhibition (IC50) was put at 35 nM. Consider `O=c1cc(C2CCNCC2)n2nc3cccc(-c4ccc[nH]4)c3c2[nH]1` [Example 104, 4-(piperidin-4-yl)-10-(1H-pyrrol-2-yl)pyrimido[1,2-b]indazol-2(1H)-one hydrochloride], for which the IC50 was 35 nM. `CC(C)Oc1cccc2nn3c(C4CCNCC4)cc(=O)[nH]c3c12` [Example 76, 10-Isopropoxy-4-(piperidin-4-yl)pyrimido[1,2-b]indazol-2(1H)-one hydrochloride] showed an IC50 of 15 nM. Take `O=c1cc(C2CCNCC2)n2nc3cccc(-c4cccnc4)c3c2[nH]1` [Example 58, 4-(Piperidin-4-yl)-10-(pyridin-3-yl)pyrimido[1,2-b]indazol-2(1H)-one hydrochloride]: the IC50 was determined as 15 nM.

Molecule `O=c1cc(C2CCNCC2)n2nc3cc(F)cc(F)c3c2[nH]1` [Example 23, 8,10-Difluoro-4-(piperidin-4-yl)pyrimido[1,2-b]indazol-2(1H)-one hydrochloride] yielded an IC50 of 28 nM. `Cc1ccc(Cl)c2c1nn1c(C3CCNCC3)cc(=O)[nH]c21` [Example 100, 10-Chloro-7-methyl-4-(piperidin-4-yl)pyrimido[1,2-b]indazol-2(1H)-one hydrochloride] registered an IC50 of 30 nM. Still for that read-out and setting: the result for `O=c1cc(C2CCNCC2)n2nc3nc(-c4ccc(F)cc4)cc(C(F)(F)F)c3c2[nH]1` [Example 42, 8-(4-Fluorophenyl)-4-(piperidin-4-yl)-10-(trifluoromethyl)pyrido[2′,3′:3,4]pyrazolo[1,5-a]pyrimidin-2(1H)-one hydrochloride] reads 110 nM; that for `O=c1cc(C2CCNCC2)n2nc3ccc(F)c(-c4ccccc4)c3c2[nH]1` [Example 77, 9-Fluoro-10-phenyl-4-(piperidin-4-yl)pyrimido[1,2-b]indazol-2(1H)-one hydrochloride], 11 nM; that for `Cc1ccc2nn3c(C4CCNCC4)cc(=O)[nH]c3c2c1` [Example 15, 9-Methyl-4-(piperidin-4-yl)pyrimido[1,2-b]indazol-2(1H)-one hydrochloride], 48 nM. The molecule `O=c1cc(C2CCNCC2)n2nc3nccc(-c4ccccc4)c3c2[nH]1` [Example 46, 10-Phenyl-4-(piperidin-4-yl)pyrido[2′,3′:3,4]pyrazolo[1,5-a]pyrimidin-2(1H)-one hydrochloride] had an IC50 of 17 nM. In turn, `O=c1cc(C2CCNCC2)n2nc3ccc(F)c(Br)c3c2[nH]1` [Example 70, 10-Bromo-9-fluoro-4-(piperidin-4-yl)pyrimido[1,2-b]indazol-2(1H)-one hydrochloride] yielded an IC50 of 35 nM.

`O=c1cc(C2CCNCC2)n2nc3cc(C(F)(F)F)ccc3c2[nH]1` [Example 11, 4-(Piperidin-4-yl)-8-(trifluoromethyl)pyrimido[1,2-b]indazol-2(1H)-one hydrochloride]: the IC50 came to 26 nM. The molecule `Cc1ccc(Br)c2c1nn1c(C3CCNCC3)cc(=O)[nH]c21` [Example 75, 10-Bromo-7-methyl-4-(piperidin-4-yl)pyrimido[1,2-b]indazol-2(1H)-one hydrochloride] yielded an IC50 of 16 nM. The molecule `O=c1cc(C2CCNCC2)n2nc3c(Cl)cccc3c2[nH]1` [Example 22, 7-Chloro-4-(piperidin-4-yl)pyrimido[1,2-b]indazol-2(1H)-one hydrochloride] displayed an IC50 of 26 nM. With `O=c1cc(C2CCNCC2)n2nc3cccnc3c2[nH]1` [Example 9, 7-(Piperidin-4-yl)pyrido[3′,2′:3,4]pyrazolo[1,5-a]pyrimidin-9(10H)-one hydrochloride], the IC50 came to 36 nM. `O=c1cc(C2CCNCC2)n2nc3ccc(Cl)cc3c2[nH]1` [Example 5, 9-Chloro-4-(piperidin-4-yl)pyrimido[1,2-b]indazol-2(1H)-one hydrochloride]: the IC50 worked out at 37 nM.

`O=c1cc(C2CCNCC2)n2nc3c(Br)cncc3c2[nH]1` [Example 27, 7-Bromo-4-(piperidin-4-yl)pyrido[4′,3′:3,4]pyrazolo[1,5-a]pyrimidin-2(1H)-one hydrochloride] had an IC50 of 13 nM. For the molecule `O=c1cc(C2CCNCC2)n2nc3c(Cl)cc(Cl)cc3c2[nH]1` [Example 6, 7,9-Dichloro-4-(piperidin-4-yl)pyrimido[1,2-b]indazol-2(1H)-one hydrochloride], it took 94 nM to reach half-maximal inhibition (IC50).

For `O=c1cc(C2CCNCC2)n2nc3cccc(-c4ccccn4)c3c2[nH]1` [Example 82, 4-(Piperidin-4-yl)-10-(pyridin-2-yl)pyrimido[1,2-b]indazol-2(1H)-one hydrochloride], the IC50 was 20 nM. `O=c1cc(C2CCNCC2)n2nc3cccc(-c4c(F)cccc4F)c3c2[nH]1` [Example 78, 10-(2,6-Difluorophenyl)-4-(piperidin-4-yl)pyrimido[1,2-b]indazol-2(1H)-one hydrochloride] returned an IC50 of 15 nM. The molecule `CC(C)(C)c1ccc2c(n1)nn1c(C3CCNCC3)cc(=O)[nH]c21` [Example 13, 8-tert-Butyl-4-(piperidin-4-yl)pyrido[2′,3′:3,4]pyrazolo[1,5-a]pyrimidin-2(1H)-one hydrochloride] registered an IC50 of 31 nM.

`Cn1cc(-c2cccc3nn4c(C5CCNCC5)cc(=O)[nH]c4c23)cn1` [Example 87, 10-(1-Methyl-1H-pyrazol-4-yl)-4-(piperidin-4-yl)pyrimido[1,2-b]indazol-2(1H)-one hydrochloride] had an IC50 of 25 nM. On to `Cc1ccc2c(n1)nn1c(C3CCNCC3)cc(=O)[nH]c21` [Example 24, 8-Methyl-4-(piperidin-4-yl)pyrido[2′,3′:3,4]pyrazolo[1,5-a]pyrimidin-2(1H)-one hydrochloride], for which the IC50 is 34 nM. `Cc1cc(C(F)(F)F)nc2nn3c(C4CCNCC4)cc(=O)[nH]c3c12` [Example 14, 10-Methyl-4-(piperidin-4-yl)-8-(trifluoromethyl)pyrido[2′,3′:3,4]pyrazolo[1,5-a]pyrimidin-2(1H)-one hydrochloride] displayed an IC50 of 50 nM.

`CCOc1cccc2nn3c(C4CCNCC4)cc(=O)[nH]c3c12` [Example 26, 10-Ethoxy-4-(piperidin-4-yl)pyrimido[1,2-b]indazol-2(1H)-one hydrochloride] had an IC50 of 29 nM. On the same count and under the same terms, the result for `O=c1cc(C2CCNCC2)n2nc3cccc(C4CCCC4)c3c2[nH]1` [Example 63, 10-Cyclopentyl-4-(piperidin-4-yl)pyrimido[1,2-b]indazol-2(1H)-one hydrochloride] reads 13 nM; that for `O=c1cc(C2CCNCC2)n2nc3cc(F)ccc3c2[nH]1` [Example 18, 8-Fluoro-4-(piperidin-4-yl)pyrimido[1,2-b]indazol-2(1H)-one hydrochloride], 38 nM; that for `O=c1cc(C2CCNCC2)n2nc3ccccc3c2[nH]1` [Example 1, 4-(Piperidin-4-yl)pyrimido[1,2-b]indazol-2(1H)-one hydrochloride], 51 nM.

The same experiment, now with this note: diluted human citrated plasma (platelet-poor, 5%), fibrinogen 3 μM, CaCl2 10 mM, tPA 0.2 nM, 37° C., OD 405 nm; hydrochloride.
In turn, `O=c1cc(C2CCNCC2)n2nc3cccc(-c4ccccc4F)c3c2[nH]1` [Example 57, 10-(2-Fluorophenyl)-4-(piperidin-4-yl)pyrimido[1,2-b]indazol-2(1H)-one hydrochloride] showed an IC50 of 13 nM.

`N#Cc1cccc2nn3c(C4CCNCC4)cc(=O)[nH]c3c12` [Example 53, 2-Oxo-4-(piperidin-4-yl)-1,2-dihydropyrimido[1,2-b]indazole-10-carbonitrile hydrochloride]: half-maximal inhibition (IC50) required 10 nM. Regarding `O=c1cc(C2CCNCC2)n2nc3cccc(Br)c3c2[nH]1` [Example 60, 10-Bromo-4-(piperidin-4-yl)pyrimido[1,2-b]indazol-2(1H)-one hydrochloride], the IC50 is 14 nM.

The values above are taken from US10098883B2, “(Aza)pyridopyrazolopyrimidinones and indazolopyrimidinones and their use” (BAYER PHARMA AKTIENGESELLSCHAFT, priority 2013, dated 2018).
